Counter-ions that a name gives are not always drawn.
What was measured:
p38 MAP Kinase a = molecular target: T1, p38 MAP Kinase a (Homo sapiens, UniProt Q16539); experiment: p38 MAP Kinase activity, radiometric filter-binding assay (Upstate); assay type: biochemical; settings: IC50 range; ATP at or close to Km; read-out: Inhibitor activity versus p38 MAPKa
T1 construct: purchased Upstate (Dundee UK)
Protocol: The ability of compounds to inhibit p38 MAP a Kinase activity was measured in an assay performed by Upstate (Dundee UK). In a final reaction volume of 25 μL, p38 MAP Kinase a (5-10 mU) is incubated with 25 mM Tris pH 7.5, 0.002 mMEGTA, 0.33 mg/mL myelin basic protein, 10 mM MgAcetate and [g-33P-ATP] (specific activity approx. 500 cpm/pmol, concentration as required). The reaction is initiated by the addition of the MgATP mix. After incubation for 40 minutes at room temperature, the reaction is stopped by the addition of 5 μL of a 3% phosphoric acid solution. 10 μL of the reaction is then spotted onto a P30 filtermat and washed three times for 5 minutes in 75 mM phosphoric acid and once in methanol prior to drying and scintillation counting.
Duplicate data points are generated from a ⅓ log dilution series of a stock solution in DMSO. Nine dilutions steps are made from a top concentration of 10 μM, and a ‘no compound’ blank is included. The standard radiometric filter-binding assay is performed at an ATP concentration at, or close to, the Km. Data from scintillation counts are collected and subjected to free-fit analysis by Prism software. From the curve generated, the concentration giving 50% inhibition is determined and reported.

THP-1 TNFα release = experiment: LPS-stimulation of THP-1 cells, TNF-α by ELISA; assay type: cell-based; settings: Homo sapiens, THP-1; IC50 range; LPS 1 μg/ml, 6 hrs; read-out: Inhibitor activity versus THP-1 TNFα release
Protocol: THP-1 cells were plated in 100 μl at a density of 4×10^4 cells/well in V-bottomed 96 well tissue culture treated plates and incubated at 37° C. in 5% CO2 for 16 hrs. 2 hrs after the addition of the inhibitor in […], of tissue culture media, the cells were stimulated with LPS (E. coli strain 005:B5, Sigma) at a final concentration of 1 μg/ml and incubated at 37° C. in 5% CO2 for 6 hrs. TNF-α levels were measured from cell-free supernatants by sandwich ELISA (R&D Systems #QTA00B).

T1 sequence (Q16539 whole entry): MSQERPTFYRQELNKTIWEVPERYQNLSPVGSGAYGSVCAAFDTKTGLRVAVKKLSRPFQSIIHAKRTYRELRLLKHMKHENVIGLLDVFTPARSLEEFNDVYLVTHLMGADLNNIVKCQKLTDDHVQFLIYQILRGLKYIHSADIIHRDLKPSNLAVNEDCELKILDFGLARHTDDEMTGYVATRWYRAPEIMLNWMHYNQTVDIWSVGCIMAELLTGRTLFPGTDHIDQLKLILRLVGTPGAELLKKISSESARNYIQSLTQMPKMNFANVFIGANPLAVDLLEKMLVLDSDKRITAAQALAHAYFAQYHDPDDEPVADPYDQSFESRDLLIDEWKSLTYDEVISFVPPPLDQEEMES

IC50 (p38 MAP Kinase a) [nM] | IC50 (THP-1 TNFα release) [nM] | Compound
100 to 1000 | > 1000 | Cc1cc(C(=O)c2ccc(=O)n(-c3ccc(CN[C@@H](Cc4ccccc4)C(=O)OC4CCCC4)cc3)c2N)ccc1F [Example 5, Cyclopentyl(S)-2-{4-[6-Amino-5-(3-methyl-4-fluorobenzoyl)-2-oxo-2H-pyridin-1-yl]benzylamino}-3-phenylpropionate]
100 to 1000 | > 1000 | Cc1cc(C(=O)c2ccc(=O)n(-c3ccc(CN[C@@H](CC(C)C)C(=O)OC4CCCC4)cc3)c2N)ccc1F [Example 6, Cyclopentyl(S)-2-{4-[6-Amino-5-(3-Methyl-4-fluorobenzoyl)-2-oxo-2H-pyridin-1-yl]benzylamino}-4-methylpentanoate]
< 100 | > 1000 | Nc1c(C(=O)c2ccc(F)cc2F)ccc(=O)n1-c1ccc(CN[C@H](C(=O)OC2CCCC2)c2ccccc2)cc1 [Example 7, Cyclopentyl(S)-{4-[6-Amino-5-(2,4-difluorobenzoyl)-2-oxo-2H-pyridin-1-yl]benzylamino}phenylacetate]
< 100 | 100 to 1000 | Nc1c(C(=O)c2ccc(F)cc2F)ccc(=O)n1-c1ccc(CN[C@@H](Cc2ccccc2)C(=O)OC2CCCC2)cc1 [Example 8, Cyclopentyl(S)-2-{4-[6-Amino-5-(2,4-difluorobenzoyl)-2-oxo-2H-pyridin-1-yl]benzylamino}-3-phenylpropionate]
< 100 | 100 to 1000 | Cc1cc(C(=O)c2ccc(=O)n(-c3ccc(OCCCN[C@@H](Cc4ccccc4)C(=O)OC4CCCC4)cc3)c2N)ccc1F [Example 12, Cyclopentyl(S)-2-(3-{4-[6-Amino-5-(3-methyl-4-fluorobenzoyl)-2-oxo-2H-pyridin-1-yl]phenoxy}propylamino)-3-phenyl propionate]
< 100 | < 100 | Nc1c(C(=O)c2ccc(F)cc2)ccc(=O)n1-c1c(F)cc(OCCCN[C@H](C(=O)OC2CCCC2)c2ccccc2)cc1F [Example 13, Cyclopentyl(S)-(3-{4-[6-Amino-5-(4-fluorobenzoyl)-2-oxo-2H-pyridin-1-yl]-3,5-difluorophenoxy}propylamino)phenylacetate]
< 100 | < 100 | Nc1c(C(=O)c2ccc(F)cc2)ccc(=O)n1-c1c(F)cc(OCCCN[C@@H](Cc2ccccc2)C(=O)OC2CCCC2)cc1F [Example 14]
< 100 | < 100 | CCOC(=O)[C@H](CC(C)C)NCCCOc1cc(F)c(-n2c(N)c(C(=O)c3ccc(F)cc3)ccc2=O)c(F)c1 [Example 16, Ethyl N-(3-{4-[6-amino-5-(4-fluorobenzoyl)-2-oxopyridin-1(2H)-yl]-3,5-difluorophenoxy}propyl)-L-leucinate]
< 100 | < 100 | Cc1cc(C(=O)c2ccc(=O)n(-c3c(F)cc(OCCCN[C@H](C(=O)OC4CCCC4)c4ccccc4)cc3F)c2N)ccc1F [Example 17, Cyclopentyl(S)-(3-{4-[6-Amino-5-(4-fluoro-3-methylbenzoyl)-2-oxo-2H-pyridin-1-yl]-3,5-difluorophenoxy}propylamino) phenylacetate]
< 100 | < 100 | Cc1cc(C(=O)c2ccc(=O)n(-c3c(F)cc(OCCCN[C@@H](Cc4ccccc4)C(=O)OC4CCCC4)cc3F)c2N)ccc1F [Example 18, Cyclopentyl(S)-2-(3-{4-[6-Amino-5-(4-fluoro-3-methylbenzoyl)-2-oxo-2H-pyridin-1-yl]-3,5-difluorophenoxy}propylamino)-3-phenylpropionate]
< 100 | 100 to 1000 | Nc1c(C(=O)c2ccc(F)cc2)ccc(=O)n1-c1ccc(OCCCN[C@H](C(=O)OC2CCCC2)c2ccccc2)cc1 [Example 23, Cyclopentyl(S)-(3-{4-[6-Amino-5-(4-fluorobenzoyl)-2-oxo-2H-pyridin-1-yl]-phenoxy}propylamino)phenylacetate]
< 100 | 100 to 1000 | Nc1c(C(=O)c2ccc(F)cc2)ccc(=O)n1-c1ccc(OCCCN[C@@H](Cc2ccccc2)C(=O)OC2CCCC2)cc1 [Example 24, Cyclopentyl(S)-2-(3-{4-[6-Amino-5-(4-fluorobenzoyl)-2-oxo-2H-pyridin-1-yl]phenoxy}propylamino)-3-phenylpropionate]
< 100 | 100 to 1000 | Cc1cc(C(=O)c2ccc(=O)n(-c3ccc(OCCCN[C@H](C(=O)OC4CCCC4)c4ccccc4)cc3)c2N)ccc1F [Example 26]
< 100 | < 100 | Nc1c(C(=O)c2ccc(F)cc2F)ccc(=O)n1-c1ccc(OCCCN[C@H](C(=O)OC2CCCC2)c2ccccc2)cc1 [Example 28, Cyclopentyl(S)-(3-{4-[6-Amino-5-(2,4-difluorobenzoyl)-2-oxo-2H-pyridin-1-yl]1-phenoxy}propylamino)phenyl acetate]
< 100 | 100 to 1000 | Nc1c(C(=O)c2ccc(F)cc2F)ccc(=O)n1-c1ccc(OCCCN[C@@H](Cc2ccccc2)C(=O)OC2CCCC2)cc1 [Example 29, Cyclopentyl(S)-2-(3-{4-[6-Amino-5-(2,4-difluorobenzoyl)-2-oxo-2H-pyridin-1-yl]phenoxy}propylamino)-3-phenyl propionate]
< 100 | < 100 | CC(C)C[C@H](NCCCOc1ccc(-n2c(N)c(C(=O)c3ccc(F)cc3F)ccc2=O)cc1)C(=O)OC1CCCC1 [Example 30, Cyclopentyl(S)-2-(3-{4-[6-Amino-5-(2,4-difluorobenzoyl)-2-oxo-2H-pyridin-1-yl]phenoxy}propylamino)-4-methyl pentanoate]
< 100 | < 100 | Nc1c(C(=O)c2ccc(F)cc2)ccc(=O)n1-c1c(F)cc(OC2CCC(N[C@@H](Cc3ccccc3)C(=O)OC3CCCC3)CC2)cc1F (some centres unmarked) [Example 31, trifluoroacetate]
< 100 | < 100 | Nc1c(C(=O)c2ccc(F)cc2)ccc(=O)n1-c1c(F)cc(OC2CCC(N[C@H](C(=O)OC3CCCC3)c3ccccc3)CC2)cc1F (stereo partly drawn) [Example 32, Cyclopentyl(2S)-[(4-{4-[6-amino-5-(4-fluorobenzoyl)-2-oxopyridin-1(2H)-yl]-3,5-difluorophenoxy}cyclohexyl)amino](phenyl)acetate]
< 100 | < 100 | CC(C)C[C@H](NC1CCC(Oc2cc(F)c(-n3c(N)c(C(=O)c4ccc(F)cc4)ccc3=O)c(F)c2)CC1)C(=O)OC1CCCC1 (stereo partly drawn) [Example 33, Cyclopentyl(S)-2-(4-{4-[6-Amino-5-(4-fluorobenzoyl)-2-oxo-2H-pyridin-1-yl]-3,5-difluorophenoxy}cyclohexylamino)-4-methylpentanoate]
< 100 | 100 to 1000 | CC(C)(C)OC(=O)[C@H](Cc1ccccc1)NCCCOc1cc(F)c(-n2c(N)c(C(=O)c3ccc(F)cc3F)ccc2=O)c(F)c1 [Example 37, tert-Butyl(S)-2-(3-{4-[6-Amino-5-(2,4-difluorobenzoyl)-2-oxo-2H-pyridin-1-yl]-3,5-difluorophenoxy}-propylamino)-3-phenyl propionate]
< 100 | 100 to 1000 | CC(C)C[C@H](NCCCOc1ccc(-n2c(N)c(C(=O)c3ccc(F)cc3F)ccc2=O)cc1)C(=O)OC(C)(C)C [Example 39, tert-Butyl(S)-2-(3-{4-[6-Amino-5-(2,4-difluorobenzoyl)-2-oxo-2H-pyridin-1-yl]phenoxy}propylamino)-4-methyl pentanoate]
< 100 | < 100 | Nc1c(C(=O)c2ccc(F)cc2F)ccc(=O)n1-c1c(F)cc(OCCCN[C@H](C(=O)OC2Cc3ccccc3C2)c2ccccc2)cc1F [Example 40, 2,3-Dihydro-1H-inden-2-yl (2S)-[(3-{4-[6-amino-5-(2,4-difluorobenzoyl)-2-oxopyridin-1(2H)-yl]-3,5-difluorophenoxy}propyl)amino](phenyl)acetate]
< 100 | < 100 | Nc1c(C(=O)c2ccc(F)cc2F)ccc(=O)n1-c1c(F)cc(OCCCN[C@H](C(=O)OC2CC3CCC2C3)c2ccccc2)cc1F (stereo partly drawn) [Example 43, Bicyclo[2.2.1]hept-2-yl(2S)-[(3-{4-[6-amino-5-(2,4-difluorobenzoyl)-2-oxopyridin-1(2H)-yl]-3,5-difluorophenoxy}propyl)amino](phenyl)acetate]
100 to 1000 | < 100 | Nc1c(C(=O)c2ccc(F)cc2F)ccc(=O)n1-c1c(F)cc(OCCCN[C@@H](C(=O)OC2CC3CCC2C3)c2ccccc2)cc1F (stereo partly drawn) [Example 44, Bicyclo[2.2.1]hept-2-yl (2R)-[(3-{4-[6-amino-5-(2,4-difluorobenzoyl)-2-oxopyridin-1(2H)-yl]-3,5-difluorophenoxy}propyl)amino](phenyl)acetate]
< 100 | < 100 | CC(C)C[C@@H](NCCCOc1cc(F)c(-n2c(N)c(C(=O)c3ccc(F)cc3F)ccc2=O)c(F)c1)C(=O)OC1CCCC1 [Example 50, Cyclopentyl N-(3-{4-[6-amino-5-(2,4-difluorobenzoyl)-2-oxopyridin-1(2H)-yl]-3,5-difluorophenoxy}propyl)-D-leucinate]

Source: US8044211B2 (Chroma Therapeutics Ltd., priority 2006, dated 2011)
